Results as given in ChEMBL document CHEMBL1201862, “PubChem BioAssay data set” (2004).
Activity calls are given as the source filed them.

Legend:
[1] = biological target: T1, High affinity choline transporter 1 (Homo sapiens, UniProt Q9GZV3); assay: CHT inhibitors, dose response, cell-based, 10-point CRC, membrane potential dye (AID 588401); type: functional;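 further: membrane potential dye fluorescence of choline-evoked depolarization via CHT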
T1 sequence (Q9GZV3 whole entry): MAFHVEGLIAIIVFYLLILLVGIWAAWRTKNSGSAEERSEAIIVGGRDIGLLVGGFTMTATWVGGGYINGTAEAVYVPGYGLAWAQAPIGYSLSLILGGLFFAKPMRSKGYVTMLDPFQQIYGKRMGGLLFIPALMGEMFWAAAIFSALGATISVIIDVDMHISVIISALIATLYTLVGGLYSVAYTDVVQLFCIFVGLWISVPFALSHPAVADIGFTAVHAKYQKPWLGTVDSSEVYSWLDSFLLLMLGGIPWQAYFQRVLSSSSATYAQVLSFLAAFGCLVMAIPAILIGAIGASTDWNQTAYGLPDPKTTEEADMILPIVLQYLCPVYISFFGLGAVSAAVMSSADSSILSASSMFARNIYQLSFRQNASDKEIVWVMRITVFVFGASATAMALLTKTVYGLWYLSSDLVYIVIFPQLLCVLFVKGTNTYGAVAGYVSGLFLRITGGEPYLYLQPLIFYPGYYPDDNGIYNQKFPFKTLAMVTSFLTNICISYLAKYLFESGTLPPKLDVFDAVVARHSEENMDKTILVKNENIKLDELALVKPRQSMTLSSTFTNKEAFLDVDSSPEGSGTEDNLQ

[2] = HEp-2 cell cytotoxicity, dose response, cytotoxicity control for RSV inhibitor project, HTS (AID 2410); type: functional; settings: human respiratory syncytial virus
[3] = biological target: T1, High affinity choline transporter 1; assay: CHT inhibitors, dose response, cell-based, 5-point CRC, membrane potential dye (AID 504840); type: functional
[4] = biological target: T2, Interleukin-8 (Homo sapiens, UniProt P10145); assay: Dose Response confirmation of uHTS small molecule hits for cystic fibrosis induced NFkb Inhibitors in a PAF-induced IL8 counterscreen.; type: functional; settings: read-out: IC50_Mean
T2 sequence (P10145 whole entry): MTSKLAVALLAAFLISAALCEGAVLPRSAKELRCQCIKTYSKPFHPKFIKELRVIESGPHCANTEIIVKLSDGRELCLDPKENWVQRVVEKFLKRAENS

[5] = HEK293T cytotoxicity, dose response, cytotoxicity control for miR-122 modulator project, cell-based, inhibitor set, cherry-pick, set 2 (AID 720697); type: functional
[6] = HeLa cell cytotoxicity, dose response, cytotoxicity control for MgcRacGAP inhibitor project (AID 624300); type: functional
[7] = biological target: Heat shock protein HSP 90-alpha (Homo sapiens, UniProt P07900); type: functional, organism-based
[8] = biological target: Beta Lactamase (Pseudomonas aeruginosa, UniProt Q932Y6); assay: beta-lactamase reporter inhibitor potency, dose response, artefact control for TLR9-MyD88 binding inhibitor project, BLA reporter cells, FRET fluorescence (AID 588341); type: cell-based;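 further: cell based assay in CHO-K1 cells stably expressing beta-lactamase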
[9] = tested on: CHO; assay: cytotoxicity in TLR9-MyD88 CHO cells, dose response, cytotoxicity control for TLR9-MyD88 binding inhibitor project, cell-based, luminescence (AID 588339); type: functional, hamster; settings: Cricetulus griseus;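 further: CHO cells stably coexpressing TLR9 and MyD88 fusions from primary screen; compound exposure lasted 48 hours before viability readout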
[10] = biological target: T3, Zinc finger protein mex-5 (Caenorhabditis elegans, UniProt Q9XUB2); assay: MEX-5/TCR-2 RNA interaction inhibitors, dose response, biochemical, C. elegans, fluorescence polarization (AID 1960)
T3 sequence (Q9XUB2 whole entry): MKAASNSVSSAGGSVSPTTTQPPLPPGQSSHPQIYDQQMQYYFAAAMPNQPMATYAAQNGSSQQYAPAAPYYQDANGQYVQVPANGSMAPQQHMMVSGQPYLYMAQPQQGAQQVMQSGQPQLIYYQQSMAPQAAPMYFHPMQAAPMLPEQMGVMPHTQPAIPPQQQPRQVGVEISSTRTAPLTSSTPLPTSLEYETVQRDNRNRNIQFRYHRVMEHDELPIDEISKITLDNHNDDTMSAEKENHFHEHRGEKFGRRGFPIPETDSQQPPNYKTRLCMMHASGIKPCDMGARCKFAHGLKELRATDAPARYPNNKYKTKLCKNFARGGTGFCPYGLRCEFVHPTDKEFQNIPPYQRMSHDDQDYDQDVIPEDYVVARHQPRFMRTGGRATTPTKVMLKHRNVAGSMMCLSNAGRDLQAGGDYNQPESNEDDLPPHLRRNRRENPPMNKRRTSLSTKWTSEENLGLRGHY

[11] = biological target: Genome polyprotein (dengue virus type 2, UniProt P29990); assay: Dengue-2 NS5 methyltransferase inhibitors, primary screen, biochemical, confirmation dose response (AID 588689); type: functional
[12] = biological target: T4, RNA-binding protein pos-1 (Caenorhabditis elegans, UniProt G5EF15); assay: inhibitors of POS-1/mex-3 RNA binding, dose response, biochemical, fluorescence polarization (AID 1964);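 further: purified POS-1 fused to maltose binding protein made in E. coli; potency of compounds blocking POS-1 binding to fluorescent RNA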
T4 sequence (G5EF15 whole entry): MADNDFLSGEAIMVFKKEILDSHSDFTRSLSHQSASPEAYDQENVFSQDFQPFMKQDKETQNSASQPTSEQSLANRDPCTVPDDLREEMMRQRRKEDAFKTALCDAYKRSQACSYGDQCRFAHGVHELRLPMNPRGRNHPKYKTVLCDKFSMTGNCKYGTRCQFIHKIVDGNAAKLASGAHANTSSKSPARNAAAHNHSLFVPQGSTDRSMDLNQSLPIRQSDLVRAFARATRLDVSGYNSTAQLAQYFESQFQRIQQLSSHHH

[13] = biological target: T5, Rac GTPase-activating protein 1 (Homo sapiens, UniProt Q9H0H5); assay: MgcRacGAP GTPase-activating activity inhibitors, confirmation, biochemical, ADP Hunter fluorescence, primary and confirmatory (AID 624330); type: functional
T5 sequence (Q9H0H5 whole entry): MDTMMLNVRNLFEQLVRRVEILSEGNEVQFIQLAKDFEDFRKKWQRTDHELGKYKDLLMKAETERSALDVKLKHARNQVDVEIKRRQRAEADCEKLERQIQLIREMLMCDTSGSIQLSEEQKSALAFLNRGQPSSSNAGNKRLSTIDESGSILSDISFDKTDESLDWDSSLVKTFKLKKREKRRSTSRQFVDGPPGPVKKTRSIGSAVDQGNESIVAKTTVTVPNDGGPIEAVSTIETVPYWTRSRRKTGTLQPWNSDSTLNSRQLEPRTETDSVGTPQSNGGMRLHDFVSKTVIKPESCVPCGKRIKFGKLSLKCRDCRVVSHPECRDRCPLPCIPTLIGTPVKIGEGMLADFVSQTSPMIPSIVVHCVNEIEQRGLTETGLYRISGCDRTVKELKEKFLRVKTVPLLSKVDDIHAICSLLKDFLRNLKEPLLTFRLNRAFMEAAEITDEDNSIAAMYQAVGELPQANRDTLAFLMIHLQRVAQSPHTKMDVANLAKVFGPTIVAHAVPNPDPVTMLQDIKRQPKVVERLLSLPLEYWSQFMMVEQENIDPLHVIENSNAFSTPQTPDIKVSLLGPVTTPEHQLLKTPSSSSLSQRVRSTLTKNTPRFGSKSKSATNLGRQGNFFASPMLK

[14] = biological target: Phospholipase A2 (Homo sapiens, UniProt P04054); type: functional;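 further: confirmatory dose-response counterscreen on phospholipase A2, testing hits that came from an ultra-high-throughput screen for ATG4B inhibitors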
[15] = Luminescence Cell-Based Dose Retest to Confirm Inhibitors of Cancer Stem Cells. [Related pubchem assays (depositor defined):AID2717, AID2721]; type: functional; settings: Homo sapiens
[16] = biological target: T6, Cysteine protease ATG4B (Homo sapiens, UniProt Q9Y4P1); type: functional;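 further: Fluorescence-based dose-response confirmation assay measuring inhibition of ATG4B activity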
T6 sequence (Q9Y4P1 whole entry): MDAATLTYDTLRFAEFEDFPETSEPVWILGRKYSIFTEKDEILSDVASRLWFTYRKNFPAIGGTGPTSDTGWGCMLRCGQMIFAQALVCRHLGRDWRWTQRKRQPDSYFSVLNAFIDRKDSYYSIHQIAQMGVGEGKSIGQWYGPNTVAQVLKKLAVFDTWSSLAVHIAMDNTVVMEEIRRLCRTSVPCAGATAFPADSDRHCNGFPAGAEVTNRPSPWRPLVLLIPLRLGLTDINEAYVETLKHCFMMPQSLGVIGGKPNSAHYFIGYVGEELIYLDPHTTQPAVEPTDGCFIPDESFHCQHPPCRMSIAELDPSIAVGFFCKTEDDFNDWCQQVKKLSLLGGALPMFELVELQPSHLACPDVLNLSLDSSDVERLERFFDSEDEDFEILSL

[17] = Counterscreen for inhibitors of Trypanosoma brucei methionyl tRNA synthetase (MetRS): Luminescence-based cell-based high throughput dose response assay to identify compounds that are cytotoxic to Jurkat human T lymphocyte cells.; type: functional
[18] = biological target: T7, DNA repair and recombination protein RAD54-like (Homo sapiens, UniProt Q92698); assay: inhibitors of human RAD54 branch migration, confirmation, biochemical, fluorescence, cherry-picked samples, dose series (AID 651657); type: functional
T7 sequence (Q92698 whole entry): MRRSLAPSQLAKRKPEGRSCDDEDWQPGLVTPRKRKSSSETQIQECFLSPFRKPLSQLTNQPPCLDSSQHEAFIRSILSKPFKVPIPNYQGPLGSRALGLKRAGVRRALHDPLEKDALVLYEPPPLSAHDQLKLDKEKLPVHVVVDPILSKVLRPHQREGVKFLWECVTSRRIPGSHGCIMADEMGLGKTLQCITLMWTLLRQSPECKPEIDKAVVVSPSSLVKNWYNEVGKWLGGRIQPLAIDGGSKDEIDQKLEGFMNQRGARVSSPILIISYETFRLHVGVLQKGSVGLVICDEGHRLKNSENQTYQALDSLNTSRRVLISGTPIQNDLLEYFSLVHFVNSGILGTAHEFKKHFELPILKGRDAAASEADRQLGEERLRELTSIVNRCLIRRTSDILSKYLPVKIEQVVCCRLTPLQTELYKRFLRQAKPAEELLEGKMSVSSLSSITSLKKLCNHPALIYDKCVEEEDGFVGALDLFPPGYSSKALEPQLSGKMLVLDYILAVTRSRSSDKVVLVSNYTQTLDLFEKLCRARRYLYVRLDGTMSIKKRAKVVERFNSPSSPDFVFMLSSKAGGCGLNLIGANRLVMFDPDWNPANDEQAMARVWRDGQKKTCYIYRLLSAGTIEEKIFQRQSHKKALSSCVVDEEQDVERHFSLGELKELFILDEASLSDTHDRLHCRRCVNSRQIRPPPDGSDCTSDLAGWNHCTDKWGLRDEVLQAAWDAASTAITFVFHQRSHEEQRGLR

[19] = biological target: T8, DNA repair protein RAD52 homolog (Homo sapiens, UniProt P43351); type: functional, biochemical
T8 sequence (P43351 whole entry): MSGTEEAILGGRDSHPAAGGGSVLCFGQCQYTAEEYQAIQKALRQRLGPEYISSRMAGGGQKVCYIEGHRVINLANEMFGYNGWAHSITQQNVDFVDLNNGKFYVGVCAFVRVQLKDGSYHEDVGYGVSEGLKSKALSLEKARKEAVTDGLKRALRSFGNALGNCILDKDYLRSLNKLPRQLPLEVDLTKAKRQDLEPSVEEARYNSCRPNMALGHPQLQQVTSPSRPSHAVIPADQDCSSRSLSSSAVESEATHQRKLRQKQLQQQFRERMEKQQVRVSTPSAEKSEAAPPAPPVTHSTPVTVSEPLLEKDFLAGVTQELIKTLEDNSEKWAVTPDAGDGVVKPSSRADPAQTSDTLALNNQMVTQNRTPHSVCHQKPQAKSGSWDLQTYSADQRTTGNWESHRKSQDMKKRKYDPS

[20] = biological target: Paired box protein Pax-8 (Homo sapiens, UniProt Q06710); assay: inhibitors of PAX8-driven TPO luciferase reporter, dose response, RMG-I cells, cherry-pick (AID 687027); type: functional, cell-based;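 further: luciferase reporter driven by Pax8 target thyroperoxidase promoter measured by SteadyGlo luminescence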
[21] = tested on: Streptococcus sp. 'group A'; assay: growth inhibition of control SK(-) GAS strain, dose response, counter-screen for streptokinase expression inhibitor project, luminescence, kanamycin, BacTiterGlo, confirmation (AID 1900); type: functional, organism-based
[22] = tested on: Streptococcus; assay: Group A Streptococcus viability loss, dose response, counter-screen for streptokinase expression inhibitor project, luminescence, BacTiterGlo (AID 1915); type: functional, organism-based;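 further: potency for reduction of bacterial viability or growth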
[23] = miR-122 activators in hepatoma reporter cells, dose response, cell-based, Huh7 psiCHECK-miR122, Renilla luciferase, cherry-picked (AID 651956); type: functional;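 further: huh7 hepatoma cells stably carrying a psiCHECK-2 miR-122 sensor plasmid; renilla luciferase signal reporting endogenous miR-122 activity after 48 h compound exposure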

Sequence of Phospholipase A2 (P04054 whole entry): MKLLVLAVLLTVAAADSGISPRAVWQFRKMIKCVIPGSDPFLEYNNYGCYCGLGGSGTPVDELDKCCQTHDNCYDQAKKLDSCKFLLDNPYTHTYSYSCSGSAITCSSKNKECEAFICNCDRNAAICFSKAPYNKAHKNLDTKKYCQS
Sequence of Beta Lactamase (Q932Y6 whole entry, the tested form may be a part): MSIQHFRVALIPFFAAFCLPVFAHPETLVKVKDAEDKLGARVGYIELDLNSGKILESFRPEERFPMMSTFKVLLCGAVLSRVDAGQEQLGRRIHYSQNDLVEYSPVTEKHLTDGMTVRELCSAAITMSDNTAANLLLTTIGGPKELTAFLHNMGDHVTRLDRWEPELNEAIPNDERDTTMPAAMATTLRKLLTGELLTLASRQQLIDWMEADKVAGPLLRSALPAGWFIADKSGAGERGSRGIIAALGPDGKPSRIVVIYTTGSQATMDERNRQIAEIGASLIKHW
Sequence of Genome polyprotein (P29990 2492-3391 limits assumed): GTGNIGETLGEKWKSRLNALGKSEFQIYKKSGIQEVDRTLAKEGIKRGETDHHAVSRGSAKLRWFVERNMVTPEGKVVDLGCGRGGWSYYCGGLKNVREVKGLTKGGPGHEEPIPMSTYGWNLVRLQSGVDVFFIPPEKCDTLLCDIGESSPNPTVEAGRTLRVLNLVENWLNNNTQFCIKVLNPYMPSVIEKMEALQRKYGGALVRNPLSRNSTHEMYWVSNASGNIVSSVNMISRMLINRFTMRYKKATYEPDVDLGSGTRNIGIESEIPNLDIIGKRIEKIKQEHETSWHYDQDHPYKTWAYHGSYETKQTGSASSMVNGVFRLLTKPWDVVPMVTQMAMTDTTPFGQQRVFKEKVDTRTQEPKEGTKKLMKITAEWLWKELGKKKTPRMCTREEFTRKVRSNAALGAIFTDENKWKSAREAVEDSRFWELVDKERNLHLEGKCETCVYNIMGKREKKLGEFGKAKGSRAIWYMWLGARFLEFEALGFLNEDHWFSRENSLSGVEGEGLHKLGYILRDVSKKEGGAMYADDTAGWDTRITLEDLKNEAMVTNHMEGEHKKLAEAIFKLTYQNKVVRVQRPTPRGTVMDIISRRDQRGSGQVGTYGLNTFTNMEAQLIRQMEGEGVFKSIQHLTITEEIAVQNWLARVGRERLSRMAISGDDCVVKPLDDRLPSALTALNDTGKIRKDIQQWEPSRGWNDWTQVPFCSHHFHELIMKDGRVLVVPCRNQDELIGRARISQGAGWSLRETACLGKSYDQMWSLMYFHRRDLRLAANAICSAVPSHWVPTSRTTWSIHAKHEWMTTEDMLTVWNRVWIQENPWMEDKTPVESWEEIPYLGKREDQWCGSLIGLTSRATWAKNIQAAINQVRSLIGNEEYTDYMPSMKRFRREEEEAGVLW
Sequence of Paired box protein Pax-8 (Q06710 whole entry): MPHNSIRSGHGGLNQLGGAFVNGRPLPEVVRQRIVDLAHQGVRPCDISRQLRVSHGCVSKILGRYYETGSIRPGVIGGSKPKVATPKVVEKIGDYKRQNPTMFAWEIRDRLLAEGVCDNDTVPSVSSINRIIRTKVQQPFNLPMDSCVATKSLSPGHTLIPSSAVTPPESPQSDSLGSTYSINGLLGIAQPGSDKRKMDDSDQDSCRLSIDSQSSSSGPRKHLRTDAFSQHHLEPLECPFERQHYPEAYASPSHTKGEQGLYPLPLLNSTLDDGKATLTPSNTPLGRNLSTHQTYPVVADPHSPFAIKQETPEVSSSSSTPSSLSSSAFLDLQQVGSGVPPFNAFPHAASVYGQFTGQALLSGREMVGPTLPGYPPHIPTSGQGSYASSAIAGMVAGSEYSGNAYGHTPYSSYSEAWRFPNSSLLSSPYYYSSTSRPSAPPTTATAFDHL

Cc1ccc(-c2csc(NC(=O)c3ccccc3Cl)c2C(=O)O)cc1
IC50 [1]: 1.58 µM (active)
CC50 [2]: 19.4 µM (active)
IC50 [3]: 2.27 µM (active)

Cc1nc(N)c(C#N)c(-c2cccnc2)c1-c1ccccc1
IC50 [4]: > 79 µM (inactive)

CC(C)c1ccc(CNC(=O)CSCC(=O)Nc2ccc3ccccc3c2)cc1
AC50 [5]: 4.3 µM (active)

N#C/C(=C/c1ccc(N2CCOCC2)o1)c1ccc(Cl)cc1
CC50 [6]: 100 µM (active)

Cc1cccc(N2C(=O)/C(=C\c3ccc(OC(F)F)cc3)c3ccccc3C2=O)c1
AC50 [7]: 4.43 µM (active)
IC50 [8]: 3.9 µM (active)
IC50 [9]: 40.4 µM (inactive)

O=C(O)c1ccccc1-c1ccc(C=C2C(=O)N(c3ccccc3)C(=S)N(c3ccccc3)C2=O)o1
EC50 [10]: > 300 µM (not active)
IC50 [11]: 12.3 µM (active)
EC50 [12]: > 300 µM (not active)
IC50 [13]: 105 µM (active)

O=C(Nc1cccc(Cl)c1N1CCCC1)c1cccc(-c2cc3ccccc3oc2=O)c1
IC50 [14]: 0.978 µM (active)
AC50 [15]: 0.262 µM (active)
IC50 [16]: 0.87 µM (active)

O=S(=O)(Nc1nc2ccccc2nc1N1CCc2ccccc2C1)c1ccc(Cl)cc1
IC50 [14]: 10 µM (active)
IC50 [16]: 9.18 µM (active)

COc1ccc(CC(=O)OCC(=O)Nc2ccc(Br)cc2)cc1
IC50 [17]: 83.3 µM (inactive)

COc1ccc(CCn2c(=N)c(C(=O)NCCN3CCOCC3)cc3c(=O)n4cccc(C)c4nc32)cc1OC
AC50 [18]: 6.24 µM (active)

CCCCCCCCCCCCCCCC[N+](C)(C)CCl
AC50 [19]: 5.5 µM (active)
IC50 [14]: 8.15 µM (active)
AC50 [7]: 5.15 µM (active)
IC50 [16]: 8.42 µM (active)

C=CC(=O)/N=c1\sc2ccccc2n1-c1ccccc1
IC50 [1]: 1.78 µM (active)
IC50 [3]: 4.37 µM (active)
AC50 [20]: 1.6 µM (active)

O=C(N/N=C1/CCC/C1=C(/O)C(F)(F)F)c1ccccc1O
IC50 [1]: 3.57 µM (active)
IC50 [3]: 2.27 µM (active)
EC50 [21]: 1.44 µM (active)
EC50 [22]: 2.75 µM (active)

C/C=C/c1ccc2c(c1)O[C@H](CN(C)C(=O)Nc1cccc(F)c1)[C@H](C)CN([C@@H](C)CO)S2(=O)=O
AC50 [23]: 31.9 µM (active)

Cc1nccc2c1[nH]c1ccccc12 [HARMAN]
AC50 [18]: 58.4 µM (active)
